PMC12697290, “Identification of novel PTP1B inhibitor for the treatment of LPS-induced myocardial apoptosis: machine learning based virtual screening and biological evaluation” (Journal of Enzyme Inhibition and Medicinal Chemistry, 2025)

Key:
PTP1B [1] = molecular target: T1, PTP1B (Homo sapiens, UniProt P18031); test: cellular thermal shift assay (CETSA), Western blot; format: cell-based; design: gene PTPN1; endogenous protein in AC16 human cardiomyocytes, detected by Western blot (antibody 11334-1-AP); conditions: AC16 cells
T1 sequence (P18031 1-435): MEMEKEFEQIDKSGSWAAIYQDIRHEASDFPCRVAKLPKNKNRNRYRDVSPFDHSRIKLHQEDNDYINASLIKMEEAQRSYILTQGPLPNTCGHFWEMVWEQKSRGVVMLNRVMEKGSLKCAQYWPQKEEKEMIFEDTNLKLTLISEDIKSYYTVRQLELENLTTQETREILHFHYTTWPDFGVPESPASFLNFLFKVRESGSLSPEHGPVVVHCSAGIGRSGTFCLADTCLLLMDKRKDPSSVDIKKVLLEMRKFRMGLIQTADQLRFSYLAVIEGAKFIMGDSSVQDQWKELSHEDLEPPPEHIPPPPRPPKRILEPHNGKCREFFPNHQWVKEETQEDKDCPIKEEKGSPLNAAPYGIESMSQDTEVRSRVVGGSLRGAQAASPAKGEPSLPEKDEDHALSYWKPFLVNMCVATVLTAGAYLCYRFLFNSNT

TCPTP [2] = molecular target: T2, TCPTP (Homo sapiens, UniProt P17706); test: phosphatase inhibition assay (protocol printed for PTP1B: pNPP, […] nm); format: biochemical; design: gene PTPN2; isolated enzyme
T2 sequence (P17706 1-415): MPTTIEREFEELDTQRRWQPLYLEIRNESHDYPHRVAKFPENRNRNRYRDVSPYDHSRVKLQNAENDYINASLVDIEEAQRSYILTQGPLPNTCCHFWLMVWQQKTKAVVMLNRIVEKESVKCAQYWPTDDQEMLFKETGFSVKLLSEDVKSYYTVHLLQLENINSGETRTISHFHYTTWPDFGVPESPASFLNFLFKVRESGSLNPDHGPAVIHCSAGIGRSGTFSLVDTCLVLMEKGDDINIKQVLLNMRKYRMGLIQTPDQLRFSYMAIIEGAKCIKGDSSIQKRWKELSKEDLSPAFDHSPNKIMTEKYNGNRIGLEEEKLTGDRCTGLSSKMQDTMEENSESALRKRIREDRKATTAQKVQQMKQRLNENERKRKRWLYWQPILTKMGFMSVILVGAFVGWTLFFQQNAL

PTP1B [3] = molecular target: T1, PTP1B; test: pNPP hydrolysis, absorbance at […] nm; format: biochemical; design: gene PTPN1; isolated enzyme
[4] = molecular target: T3, acidic phosphatase (ACP1) (Homo sapiens, UniProt P24666); test: phosphatase inhibition assay (protocol printed for PTP1B: pNPP, […] nm); format: biochemical; conditions: conditions not stated separately for ACP1
T3 construct: isolated enzyme
T3 sequence (P24666 2-158): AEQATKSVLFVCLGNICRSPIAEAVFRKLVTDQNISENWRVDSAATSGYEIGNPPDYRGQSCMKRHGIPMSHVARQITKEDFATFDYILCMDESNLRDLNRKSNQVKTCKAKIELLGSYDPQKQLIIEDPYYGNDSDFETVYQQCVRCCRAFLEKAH

TCPTP [5] = molecular target: T2, TCPTP; test: cellular thermal shift assay (CETSA), Western blot; format: cell-based; design: gene PTPN2; endogenous protein in AC16 human cardiomyocytes, detected by Western blot (antibody 11214-1-AP); conditions: AC16 cells
PTP1B [6] = molecular target: T1, PTP1B; test: pNPP hydrolysis, absorbance at […] nm; format: biochemical; design: gene PTPN1; isolated enzyme; conditions: 5 mM pNPP, 50 mM Hepes, 1 mM DTT, pH 7.0, 37 °C; 10 μM compound

IC50 (TCPTP [2]) [µM] | IC50 (PTP1B [3]) [µM] | IC50 [4] [µM] | SMILES | CETSA stabilisation (PTP1B [1]) | CETSA stabilisation (TCPTP [5]) | inhibitory rate at 20 μM (PTP1B [6])
5.9 ± 2.4 | 4.1 ± 0.3 | > 20 | N#C/C(=C\c1ccc(OCC(=O)O)cc1)c1nc2ccccc2[nH]1 [PI-2] | PI-2 could effectively enhance the PTP1B and TCPTP stability in vitro | PI-2 could effectively enhance the PTP1B and TCPTP stability in vitro | 95.6%
 |  |  | O=C(O)COCC(=O)Nc1cc(SCC(O)CO)cc([N+](=O)[O-])c1 (centres unmarked) [PI-7] |  |  | compounds PI-1, PI-2 and PI-7 displayed a moderate to potent inhibitory activity against PTP1B
 |  |  | CO/N=C(\C(=O)N[C@@H]1C(=O)N2C(C(=O)O)=C(CSc3nc(=O)c(O)nn3C)CS[C@H]12)c1csc(N)n1 [PI-1] |  |  | compounds PI-1, PI-2 and PI-7 displayed a moderate to potent inhibitory activity against PTP1B
